# No end group written: not given here.
# T1: human TAS1R2-S212G/TAS1R3-WT (Homo sapiens, UniProt Q7RTX0+Q8TE23, S212G)
# T1 construct: expressed in transfected cells; host or cells: HEK293T-Gα16gust44
# T1 sequence (Q8TE23 20-839 S212G): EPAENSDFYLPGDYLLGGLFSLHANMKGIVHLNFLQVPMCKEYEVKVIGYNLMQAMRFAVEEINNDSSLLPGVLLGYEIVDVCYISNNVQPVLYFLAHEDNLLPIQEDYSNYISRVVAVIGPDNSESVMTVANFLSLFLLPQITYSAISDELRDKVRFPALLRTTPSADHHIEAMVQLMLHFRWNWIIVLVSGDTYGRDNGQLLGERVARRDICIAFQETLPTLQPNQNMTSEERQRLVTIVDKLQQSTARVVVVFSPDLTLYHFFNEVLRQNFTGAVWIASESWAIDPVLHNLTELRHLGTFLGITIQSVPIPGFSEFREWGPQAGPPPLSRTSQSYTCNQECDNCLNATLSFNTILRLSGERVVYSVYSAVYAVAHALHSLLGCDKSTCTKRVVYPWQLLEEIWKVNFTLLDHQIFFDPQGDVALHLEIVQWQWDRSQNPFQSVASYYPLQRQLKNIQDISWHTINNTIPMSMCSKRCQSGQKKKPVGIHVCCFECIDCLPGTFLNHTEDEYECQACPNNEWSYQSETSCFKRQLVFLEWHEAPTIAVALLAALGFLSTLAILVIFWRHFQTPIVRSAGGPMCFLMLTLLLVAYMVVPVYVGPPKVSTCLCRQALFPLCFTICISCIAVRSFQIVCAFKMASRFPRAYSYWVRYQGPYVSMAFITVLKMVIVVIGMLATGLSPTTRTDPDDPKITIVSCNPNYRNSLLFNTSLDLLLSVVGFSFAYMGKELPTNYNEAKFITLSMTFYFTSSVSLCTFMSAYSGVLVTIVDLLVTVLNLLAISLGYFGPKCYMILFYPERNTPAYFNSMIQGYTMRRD
# T1 sequence (Q7RTX0 21-852): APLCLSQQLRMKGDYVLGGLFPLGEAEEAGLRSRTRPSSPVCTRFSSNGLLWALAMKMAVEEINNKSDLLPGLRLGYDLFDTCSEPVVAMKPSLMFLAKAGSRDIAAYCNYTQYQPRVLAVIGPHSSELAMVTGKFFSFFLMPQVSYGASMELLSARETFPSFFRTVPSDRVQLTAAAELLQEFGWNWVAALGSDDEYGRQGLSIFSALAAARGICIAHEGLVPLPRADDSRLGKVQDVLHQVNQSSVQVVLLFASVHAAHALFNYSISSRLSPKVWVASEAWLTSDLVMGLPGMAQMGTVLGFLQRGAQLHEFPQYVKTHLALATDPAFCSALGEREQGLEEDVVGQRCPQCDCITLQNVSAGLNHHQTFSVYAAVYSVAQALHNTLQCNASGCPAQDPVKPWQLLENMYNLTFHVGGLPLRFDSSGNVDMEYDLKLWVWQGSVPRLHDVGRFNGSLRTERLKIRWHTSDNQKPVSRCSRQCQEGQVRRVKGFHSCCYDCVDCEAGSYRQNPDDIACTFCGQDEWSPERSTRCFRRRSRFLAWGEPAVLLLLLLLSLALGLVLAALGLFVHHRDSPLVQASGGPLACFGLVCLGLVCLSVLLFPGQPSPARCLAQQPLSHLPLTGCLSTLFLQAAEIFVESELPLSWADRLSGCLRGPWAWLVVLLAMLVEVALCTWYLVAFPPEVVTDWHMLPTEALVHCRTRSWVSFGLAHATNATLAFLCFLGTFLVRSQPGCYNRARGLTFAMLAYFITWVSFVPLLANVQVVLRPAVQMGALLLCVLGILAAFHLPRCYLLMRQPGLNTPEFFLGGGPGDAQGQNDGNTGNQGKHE
# Target: T1, human TAS1R2-S212G/TAS1R3-WT
# Assay: Calcium mobilisation assay, TAS1R2 variant S212G with TAS1R3-WT
# Type: cell-based
# Settings: for Max ΔF/F0: maximal signal amplitude
# Text: The coding sequences for TAS1R2 and TAS1R3 were commercially synthesised, and the human codon was optimised for expression in human cells. The coding sequences of human TAS1R2 and TAS1R3 were subcloned and inserted into the mammalian expression vectors pcDNA6/myc-HisA and pcDNA4/myc-HisA (Invitrogen; Thermo Fisher Scientific; Illkirch, France) between the EcoRI and NotI restriction sites, generating the plasmids pcDNA6-TAS1R2 and pcDNA4-TAS1R3, respectively. To increase protein expression in mammalian cells, an upstream start codon was used, which was a sequence called MAX, corresponding to the QBI SP163 element also described in pcDNA4-HisMax (Invitrogen; Thermo Fisher Scientific; Illkirch, France). To measure the expression level of the receptor by immunohistochemistry, we used the FLAG sequence ([…]) in the C-terminal position, which encodes the FLAG tag epitope. SNP variants of TAS1R2 and TAS1R3 were constructed based on […], respectively, using site-directed mutagenesis (Genewiz; Leipzig, Germany).
# The HEK293T cells were kindly provided by Jay P. Slack (Givaudan Flavors Corporation; Cincinnati, OH, USA). HEK293T cells stably transfected with Gα16gust44 [43, 67] were seeded in poly-D-lysine-coated clear-bottom black 96-well plates (0.35 × 10^5 cells/well) in high-glucose DMEM supplemented with 2 mM GlutaMAX, 10% dialysed foetal bovine serum with penicillin/streptomycin and G418 (400 μg/mL) at 37 °C and 6.3% CO2 in a humidified atmosphere as previously reported. […] As a negative control, HEK293T cells were mock-transfected with the empty expression vector. After a further 24 h of incubation, the HEK293T cells were washed with C1 buffer (130 mM NaCl, 5 mM KCl, 10 mM HEPES pH 7.4 and 2 mM CaCl2). The 96-well plates containing the cells were then stimulated with sweet-tasting compounds. […] Different concentration ranges were tested depending on the sweet compound injected. The Ca^2+ changes were expressed as fractional changes in fluorescent light intensity: ΔF/F = (F − F0)/F0, where F was the fluorescent light intensity at each point, and F0 was the value of emitted fluorescent light prior to stimulus application. To calculate dose–response relationships, the changes in fluorescence upon stimulus application were averaged, mock-subtracted and baseline-corrected. The dose–response data obtained were adjusted using a 4-parameter logistic equation. The half-maximal effective concentrations (EC50 values) and maximal signal amplitudes were calculated using SigmaPlot software (version 15.0) (Systat Software; San Jose, CA, USA).
# For in vitro calcium mobilisation assay performed on hTAS1R2-SNPs, hTAS1R3-SNPs and mTAS1R3-I60T, 6 to 7 concentrations were tested for each sweet compound, plus buffer alone. All concentration–receptor combinations were measured in duplicate, and each experiment was repeated at least 4 times (8 wells/concentration). Results were expressed for each concentration as ΔF/F mean ± SEM and represented as dose–response curves.
Molecule,EC50 [µM],R1 = Variant EC50/WT EC50,Max ΔF/F0
"CC1=CC(=O)NS(=O)(=O)O1 [Acesulfame K, acesulfame K]",438 ± 25,0.6,0.28 ± 0.01
"O=S(=O)(O)NC1CCCCC1 [Cyclamate, cyclamate]",1770 ± 44,–,–
"C[C@H](CC[C@@H](O[C@@H]1O[C@H](CO[C@@H]2O[C@H](CO)[C@@H](O)[C@H](O)[C@H]2O)[C@@H](O)[C@H](O)[C@H]1O[C@@H]1O[C@H](CO)[C@@H](O)[C@H](O)[C@H]1O)C(C)(C)O)[C@H]1CC[C@@]2(C)[C@@H]3CC=C4[C@@H](CC[C@H](O[C@@H]5O[C@H](CO[C@@H]6O[C@H](CO)[C@@H](O)[C@H](O)[C@H]6O)[C@@H](O)[C@H](O)[C@H]5O)C4(C)C)[C@]3(C)[C@H](O)C[C@]12C [Mogroside V, mogroside V]",21.2 ± 2.1,1.2,1.32 ± 0.05
"COc1ccc(CCC(=O)c2c(O)cc(O[C@@H]3O[C@H](CO)[C@@H](O)[C@H](O)[C@H]3O[C@@H]3O[C@@H](C)[C@H](O)[C@@H](O)[C@H]3O)cc2O)cc1O [NHDC, neohesperidin dihydrochalcone]",90.7 ± 8.1,1.2,0.84 ± 0.03
COC(=O)[C@H](Cc1ccccc1)NC(=O)[C@H](CC(=O)O)NCCC(C)(C)C [Neotame],0.99 ± 0.05,1.2,0.63 ± 0.01

# Next, values leading:
EC50 [µM],R1 = Variant EC50/WT EC50,Max ΔF/F0,Molecule
22.9 ± 0.6,1.3,1.30 ± 0.01,"C=C(C)[C@@H]1CC=C(/C=N/O)CC1 [Perillartine, perillartine]"
23.2 ± 1.1,1.4,1.14 ± 0.02,"C=C1C[C@@]23CC[C@H]4[C@@](C)(CCC[C@@]4(C)C(=O)O[C@@H]4O[C@H](CO)[C@@H](O)[C@H](O[C@@H]5O[C@H](CO)[C@@H](O)[C@H](O)[C@H]5O)[C@H]4O[C@@H]4O[C@H](CO)[C@@H](O)[C@H](O)[C@H]4O)[C@@H]2CC[C@]1(O[C@@H]1O[C@H](CO)[C@@H](O)[C@H](O[C@@H]2O[C@H](CO)[C@@H](O)[C@H](O)[C@H]2O)[C@H]1O[C@@H]1O[C@H](CO)[C@@H](O)[C@H](O)[C@H]1O)C3 [Rebaudioside M, rebaudioside M]"
96 ± 6,1.1,0.64 ± 0.02,OC[C@H]1O[C@H](O[C@]2(CCl)O[C@H](CCl)[C@@H](O)[C@@H]2O)[C@H](O)[C@@H](O)[C@H]1Cl [Sucralose]
–,1.4,1.18 ± 0.02,"brazzein (QDKCKKVYENYPVSKCQLANQCNYDCKLDKHARSGECFYDEKRNLQCICDYCEY; ends and bridges not checked; cysteine pairing not given here; UniProt P56552 1-54, looked up) [sweet-tasting protein obtained by recombinant production using the yeast Pichia pastoris]"
–,0.8,0.6 ± 0.01,thaumatin
6.1 ± 0.2,–,–,"thaumatin (protein, Eight disulfides, sweet-tasting plant protein, E957) ATFEIVNRCSYTVWAAASKGDAALDAGGRQLNSGESWTINVEPGTKGGKIWARTDCYFDDSGSGICKTGDCGGLLRCKRFGRPPTTLAEFSLNQYGKDYIDISNIKGFNVPMDFSPTTRGCRGVRCAADIVGQCPAKLKAPGGGCNDACTVFQTSEYCCTTGKCGPTEYSRFFKRLCPDAFSYVLDKPTTVTCPGSSNYRVTFCPTA"

# From article PMC11945486, “TAS1R2/TAS1R3 Single-Nucleotide Polymorphisms Affect Sweet Taste Receptor Activation by Sweeteners: The SWEET Project” (Nutrients, 2025)
